Values after ≈ are worked out from the molar mass of the structure shown. Active and inactive are the calls of the source. The rule behind the calls is not given here.
Key:
Staphylococcus aureus [1] = assay: Antibacterial activity against quinolone-resistant Staphylococcus aureus CCARM 3505; assay type: functional
Staphylococcus aureus [2] = assay: (§1) Inhibition of Staphylococcus aureus FabI-mediated trans-2-octenoyl N-acetylcysteamine reduction assessed as NADPH level by ELISA
[3] = as §1
Staphylococcus aureus [4] = assay: Antibacterial activity against Staphylococcus aureus RN4220; assay type: functional
Bacillus cereus = assay: Antibacterial activity against Bacillus cereus KCTC 1661; assay type: functional
Staphylococcus aureus [5] = assay: Antibacterial activity against methicillin-resistant Staphylococcus aureus CCARM 3167; assay type: functional
Staphylococcus aureus [6] = assay: Inhibition of Staphylococcus aureus FabG using acetoacetyl-CoA as substrate assessed as NADPH level at 300 uM by ELISA

With COc1cc(O)c2c(=O)oc3cc(O)c(O)cc3c2c1 as the compound, how does the MIC (Staphylococcus aureus [1]) read?
The MIC was 8 µg/mL (≈ 29.2 µM).

What about the inhibition (Staphylococcus aureus [2]) of the same compound?
The inhibition was “Dose-dependent effect”.

What about the IC50 [3] of the same compound?
The IC50 was 85.4 µM.

What about the MIC (Staphylococcus aureus [4]) of the same compound?
The MIC was 8 µg/mL (≈ 29.2 µM).

What about the MIC (Bacillus cereus) of the same compound?
Its MIC is 8 µg/mL (≈ 29.2 µM).

And the MIC (Staphylococcus aureus [5])?
The MIC was 8 µg/mL (≈ 29.2 µM).

And the inhibition (Staphylococcus aureus [6])?
Its inhibition is “inactive”.

Which MIC (Staphylococcus aureus [1]) does the source give for COc1cc(O)c2c(c1)[C@@]1(OC2=O)C(C)=CC(=O)[C@]12C(=O)c1c(O)c(O)cc3oc(=O)c4c(O)cc(OC)c2c4c13 (relative stereo) here?
Its MIC is 32 µg/mL (≈ 57.3 µM).

And the inhibition (Staphylococcus aureus [2])?
Its inhibition is “Dose-dependent effect”.

What about the IC50 [3] of the same compound?
The IC50 was 16.1 µM.

What about the MIC (Staphylococcus aureus [4]) of the same compound?
The MIC was 32 µg/mL (≈ 57.3 µM).

What about the MIC (Bacillus cereus) of the same compound?
Its MIC is 32 µg/mL (≈ 57.3 µM).

And the MIC (Staphylococcus aureus [5])?
The MIC was 32 µg/mL (≈ 57.3 µM).

What about the inhibition (Staphylococcus aureus [6]) of the same compound?
The inhibition was “inactive”.

Which MIC (Staphylococcus aureus [1]) does the source give for Oc1cc(Cl)ccc1Oc1ccc(Cl)cc1Cl [TRICLOSAN] here?
The MIC was 0.01 µg/mL (≈ 0.0345 µM).

And the MIC (Staphylococcus aureus [4])?
The MIC was 0.01 µg/mL (≈ 0.0345 µM).

What about the MIC (Bacillus cereus) of the same compound?
The MIC was 0.01 µg/mL (≈ 0.0345 µM).

What about the MIC (Staphylococcus aureus [5]) of the same compound?
Its MIC is 0.01 µg/mL (≈ 0.0345 µM).

With COc1cc(O)c2c(=O)oc3cc(O)c(O)c(-c4c(O)c(O)cc5oc(=O)c6c(O)cc(OC)cc6c45)c3c2c1 [VERRULACTONE A] as the compound, how does the MIC (Staphylococcus aureus [1]) read?
Its MIC is 8 µg/mL (≈ 14.6 µM).

And the IC50 [3]?
Its IC50 is 0.92 µM.

What about the MIC (Staphylococcus aureus [4]) of the same compound?
Its MIC is 8 µg/mL (≈ 14.6 µM).

And the MIC (Bacillus cereus)?
Its MIC is 8 µg/mL (≈ 14.6 µM).

What about the MIC (Staphylococcus aureus [5]) of the same compound?
Its MIC is 8 µg/mL (≈ 14.6 µM).

Which MIC (Staphylococcus aureus [1]) does the source give for COc1cc(O)c2c(=O)oc3c(-c4c(O)c(O)cc5oc(=O)c6c(O)cc(OC)cc6c45)c(O)c(O)cc3c2c1 [VERRULACTONE B] here?
Its MIC is 8 µg/mL (≈ 14.6 µM).

What about the IC50 [3] of the same compound?
Its IC50 is 1.41 µM.

And the MIC (Staphylococcus aureus [4])?
The MIC was 8 µg/mL (≈ 14.6 µM).

And the MIC (Bacillus cereus)?
Its MIC is 8 µg/mL (≈ 14.6 µM).

What about the MIC (Staphylococcus aureus [5]) of the same compound?
Its MIC is 8 µg/mL (≈ 14.6 µM).

Reference: ChEMBL document CHEMBL3098038, “Verrulactone C with an unprecedented dispiro skeleton, a new inhibitor of Staphylococcus aureus enoyl-ACP reductase, from Penicillium verruculosum F375” (Bioorg Med Chem Lett, 2014)
